# Test results as given in ChEMBL document CHEMBL1147504, “Synthesis of methylphenidate analogues and their binding affinities at dopamine and serotonin transport sites” (Bioorg Med Chem Lett, 2004).
# Legend:
# Dopamine receptor [1] = biological target: Dopamine receptor
# Description: Potency of inhibiting 10 pM [125I]-RTI-55 binding to dopamine receptor in rat striatal membranes
# [2] = […]; assay type: tissue-based, Frontal cortex
# [3] = biological target: T1, Sodium-dependent dopamine transporter (Rattus norvegicus, UniProt P23977)
# Description: Potency of inhibiting 10 pM [125I]RTI-55 binding to dopamine transporter in rat striatal membranes
# [4] = biological target: Sodium-dependent serotonin transporter (Rattus norvegicus, UniProt P31652); assay: Ability to displace 0.4 nM [3H]paroxetine binding to serotonin transporter in rat frontal cortex; assay type: tissue-based
# Chain of Sodium-dependent serotonin transporter (P31652 whole entry): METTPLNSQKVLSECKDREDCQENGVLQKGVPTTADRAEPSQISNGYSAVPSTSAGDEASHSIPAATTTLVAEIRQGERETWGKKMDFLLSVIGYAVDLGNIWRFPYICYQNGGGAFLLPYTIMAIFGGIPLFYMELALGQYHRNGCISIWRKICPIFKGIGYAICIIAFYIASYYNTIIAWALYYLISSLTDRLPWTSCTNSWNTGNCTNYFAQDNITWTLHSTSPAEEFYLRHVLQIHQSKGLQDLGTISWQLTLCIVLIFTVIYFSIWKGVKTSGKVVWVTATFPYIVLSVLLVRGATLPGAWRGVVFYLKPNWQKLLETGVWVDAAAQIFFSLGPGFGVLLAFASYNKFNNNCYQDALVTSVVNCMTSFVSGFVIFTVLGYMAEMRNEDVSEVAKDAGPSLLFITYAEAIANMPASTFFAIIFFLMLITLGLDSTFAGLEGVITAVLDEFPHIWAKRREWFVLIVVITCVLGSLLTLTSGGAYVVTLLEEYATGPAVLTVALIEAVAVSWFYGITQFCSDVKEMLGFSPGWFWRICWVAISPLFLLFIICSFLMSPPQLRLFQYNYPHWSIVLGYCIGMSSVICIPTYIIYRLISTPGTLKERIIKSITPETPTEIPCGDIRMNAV
# Dopamine receptor [5] = assay: Potency of inhibiting [3H]WIN-35428 binding to […] in rat striatal membranes; assay type: cell membranes, Membrane
# [6] = biological target: T1, Sodium-dependent dopamine transporter; assay: Inhibitory activity against dopamine transporter in rat striatal membranes; assay type: cell membranes, Striatum, Membrane
# T1 sequence (P23977 whole entry): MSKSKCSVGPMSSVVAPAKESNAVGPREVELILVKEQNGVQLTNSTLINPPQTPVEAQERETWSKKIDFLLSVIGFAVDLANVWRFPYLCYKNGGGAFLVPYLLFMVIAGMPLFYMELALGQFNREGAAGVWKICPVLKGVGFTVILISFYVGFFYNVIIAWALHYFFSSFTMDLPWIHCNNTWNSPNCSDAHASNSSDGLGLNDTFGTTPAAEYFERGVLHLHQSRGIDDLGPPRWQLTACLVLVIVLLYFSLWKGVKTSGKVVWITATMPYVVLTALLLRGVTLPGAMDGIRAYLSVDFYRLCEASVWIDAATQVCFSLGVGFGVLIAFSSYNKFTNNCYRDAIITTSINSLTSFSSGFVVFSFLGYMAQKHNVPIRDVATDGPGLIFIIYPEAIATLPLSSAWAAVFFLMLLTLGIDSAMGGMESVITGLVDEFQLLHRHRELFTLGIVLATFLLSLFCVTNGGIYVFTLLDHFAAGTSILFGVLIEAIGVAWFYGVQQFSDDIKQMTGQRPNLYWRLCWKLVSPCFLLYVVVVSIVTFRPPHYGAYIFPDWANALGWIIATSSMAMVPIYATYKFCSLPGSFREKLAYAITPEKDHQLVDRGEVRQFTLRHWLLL
Compound,IC50 (Dopamine receptor [1]) [µM],Ki [2] [µM],IC50 [3] [µM],Ki [4] [µM],other results
COC(=O)[C@H](c1ccc2ccccc2c1)[C@H]1CCCCN1.Cl,0.0111,0.0948,,,
COC(=O)[C@H](c1ccc2cc(Br)ccc2c1)[C@@H]1CCCN1,,,0.446,0.0055,
COC(=O)[C@@H](c1ccc2ccccc2c1)[C@H]1CCCN1,,,,2.02,
COC(=O)[C@H](c1ccc2cc(OC)ccc2c1)[C@@H]1CCCN1,,,,0.0546,
COC(=O)[C@H](c1ccc2ccccc2c1)[C@@H]1CCCN1,,,0.465,0.0025,
COC(=O)[C@H](c1ccc(-c2ccccc2)cc1)[C@H]1CCCCN1.Cl (racemic),1.02,> 10,,,
COC(=O)[C@H](c1ccccc1)[C@@H]1CCCN1 (racemic),,,> 1,> 10,
COC(=O)[C@H](c1ccc2ccccc2c1)[C@H]1CCCCN1 (racemic),,0.0716,,,
COC(=O)[C@H](c1ccc(Cl)cc1)[C@H]1CCCN1 (racemic),,,0.272,1.08,
COC(=O)[C@H](c1ccc(Cl)cc1)[C@@H]1CCCCN1 (racemic),,> 10,,,
COC(=O)[C@H](c1ccc(Br)cc1)[C@@H]1CCCN1 (racemic),,,0.637,> 10,
COC(=O)[C@H](c1ccc2cc(Br)ccc2c1)[C@@H]1CCCN1 (racemic),,,0.195,0.0114,
COC(=O)[C@H](c1ccc(C)cc1)[C@H]1CCCN1 (racemic),,,1.93,> 10,
COC(=O)[C@H](c1ccc(Cl)cc1)[C@H]1CCCCN1.Cl (racemic),0.0912,2.22,,,IC50 (Dopamine receptor [5]): 0.0206 µM
COC(=O)[C@H](c1ccccc1)[C@H]1CCCN1 (racemic),,,3.16,> 10,IC50 [6]: 1.34 µM
COC(=O)[C@H](c1ccccc1)[C@@H]1CCCCN1.Cl (racemic),> 1,> 10,,,
COC(=O)[C@H](c1ccc(C)cc1)[C@@H]1CCCN1 (racemic),,,> 1,> 10,
COC(=O)[C@H](c1ccc(C)cc1)[C@@H]1CCCCN1.Cl (racemic),7.43,> 10,,,
COC(=O)[C@H](c1ccc2ccccc2c1)[C@@H]1CCCCN1.Cl (racemic),2.08,0.105,,,
COC(=O)[C@H](c1ccc2cc(OC)ccc2c1)[C@@H]1CCCN1 (racemic),,,,0.245,
COC(=O)[C@H](c1ccc(Cl)c(Cl)c1)[C@@H]1CCCCN1.Cl (racemic),0.0338,> 10,,,
COC(=O)[C@H](c1ccc(-c2ccccc2)cc1)[C@@H]1CCCCN1.Cl (racemic),6.47,> 10,,,
COC(=O)[C@H](c1ccc(Cl)cc1)[C@@H]1CCCN1 (racemic),,,> 1,1.9,
COC(=O)[C@H](c1ccc(C)cc1)[C@H]1CCCCN1.Cl (racemic),0.114,> 10,,,IC50 (Dopamine receptor [5]): 0.033 µM
COC(=O)[C@H](c1ccc2ccccc2c1)[C@@H]1CCCN1 (racemic),,,0.805,0.004,
COC(=O)[C@H](c1ccc(Cl)c(Cl)c1)[C@H]1CCCCN1.Cl (racemic),0.00267,> 10,,,IC50 (Dopamine receptor [5]): 0.0053 µM
COC(=O)[C@H](c1ccccc1)[C@H]1CCCCN1.Cl (racemic) [DEXMETHYLPHENIDATE HYDROCHLORIDE],0.164,> 10,,,IC50 (Dopamine receptor [5]): 0.083 µM
COC(=O)[C@H](c1ccc2cc(C)ccc2c1)[C@@H]1CCCN1 (stereo in doubt),,,0.85,0.0023,
COC(=O)[C@H](c1ccc2cc(C)ccc2c1)[C@@H]1CCCN1 (stereo in doubt; 10i),,,1.41,0.0032,
